Test results: patent publication US9777003B2, “Tricyclic heterocycles as bet protein inhibitors” (Incyte Corporation, priority 2013, dated 2017)
Counter-ions that a name gives are not always drawn.

Legend:
BRD4-BD1 = BRD4-BD1 (Homo sapiens (Human), UniProt O60885); assay: BRD4 AlphaScreen assay, BRD4-BD1; type: binding; conditions: biotin-labeled tetra-acetylated histone H4 peptide, 75 min, room temperature, read-out: BRD4 BD-1 enzyme IC50
Summary of the method: (§1)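 Bromodomain–H4Ac4 peptide (50 nM) proximity assay; BD1 at 3.8 nM, BD2 at 20 nM. Reaction 75 min RT, bead detection 75 min in the dark, IC50 by dose-response fit.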

BRD4-BD2 = BRD4-BD2 (Homo sapiens (Human), UniProt O60885); assay: BRD4 AlphaScreen assay, BRD4-BD2; type: binding; conditions: biotin-labeled tetra-acetylated histone H4 peptide, 75 min, room temperature, read-out: BRD4 BD-2 enzyme IC50
Summary of the method: as §1

Row | IC50 (BRD4-BD1) [nM] | IC50 (BRD4-BD2) [nM] | SMILES
1 | ≤ 100 | ≤ 100 | CN[C@H]1CC[C@@H](Nc2cc3c(cc(C)n3Cc3ccccc3)n3c(C)nnc23)CC1 [Example 221, cis-N-(6-Benzyl-1,7-dimethyl-6H-pyrrolo[2,3-e][1,2,4]triazolo[4,3-a]pyridin-4-yl)-N′-methylcyclohexane-1,4-diamine]
2 | ≤ 100 | ≤ 100 | Cc1nnc2ccc3c(cc(C#N)n3Cc3ccccc3)n12 [Example 227, 6-Benzyl-1-methyl-6H-pyrrolo[2,3-e][1,2,4]triazolo[4,3-a]pyridine-7-carbonitrile Trifluoroacetate Salt]
3 | ≤ 100 | ≤ 100 | Cc1cc2c(cc(NCC3CC3)c3nnc(C)n32)n1Cc1ccccc1 [Example 228, 6-Benzyl-N-(cyclopropylmethyl)-1,7-dimethyl-6H-pyrrolo[2,3-e][1,2,4]triazolo[4,3-a]pyridin-4-amine]
4 | ≤ 100 | ≤ 100 | CNC(=O)Nc1cc2c(cc(C)n2Cc2ccccc2)n2c(C)nnc12 [Example 229, 1-(6-Benzyl-1,7-dimethyl-6H-pyrrolo[2,3-e][1,2,4]triazolo[4,3-a]pyridin-4-yl)-3-methylurea]
5 | ≤ 100 | ≤ 100 | Cc1cc2c(cc(NC(N)=O)c3nnc(C)n32)n1Cc1cccc(C(F)(F)F)c1 [Example 230, 1-(1,7-Dimethyl-6-(3-(trifluoromethyl)benzyl)-6H-pyrrolo[2,3-e][1,2,4]triazolo[4,3-a]pyridin-4-yl)urea]
6 | ≤ 100 | ≤ 100 | Cc1cc2c(cc(NC(N)=O)c3nnc(C)n32)n1Cc1cccc(Cl)c1 [Example 231, 1-(6-(3-Chlorobenzyl)-1,7-dimethyl-6H-pyrrolo[2,3-e][1,2,4]triazolo[4,3-a]pyridin-4-yl)urea]
7 | 100 to 1000 | 100 to 1000 | Cc1cc2c(cc(NC3CCCCC3)c3nnc(C)n32)n1Cc1ccccc1 [Example 232, 6-Benzyl-N-cyclohexyl-1,7-dimethyl-6H-pyrrolo[2,3-e][1,2,4]triazolo[4,3-a]pyridin-4-amine]
8 | ≤ 100 | ≤ 100 | Cc1cc2c(cc(NC(N)=O)c3nnc(C)n32)n1Cc1cc(F)cc(F)c1 [Example 233, 1-(6-(3,5-Difluorobenzyl)-1,7-dimethyl-6H-pyrrolo[2,3-e][1,2,4]triazolo[4,3-a]pyridin-4-yl)urea]
9 | ≤ 100 | ≤ 100 | Cc1cc2c(cc(NC(N)=O)c3nnc(C)n32)n1Cc1ccc(F)c(F)c1 [Example 234, 1-(6-(3,4-Difluorobenzyl)-1,7-dimethyl-6H-pyrrolo[2,3-e][1,2,4]triazolo[4,3-a]pyridin-4-yl)urea]
10 | ≤ 100 | ≤ 100 | Cc1cc2c(cc(NC(N)=O)c3nnc(C)n32)n1Cc1cccc(F)c1 [Example 235, 1-(6-(3-Fluorobenzyl)-1,7-dimethyl-6H-pyrrolo[2,3-e][1,2,4]triazolo[4,3-a]pyridin-4-yl)urea]
11 | ≤ 100 | ≤ 100 | Cc1cc2c(cc(NC(N)=O)c3nnc(C)n32)n1Cc1ccc(F)cc1F [Example 236, 1-(6-(2,4-Difluorobenzyl)-1,7-dimethyl-6H-pyrrolo[2,3-e][1,2,4]triazolo[4,3-a]pyridin-4-yl)urea]
12 | ≤ 100 | ≤ 100 | Cc1cc2c(cc(NC(N)=O)c3nnc(C)n32)n1Cc1cccc(F)c1F [Example 237, 1-(6-(2,3-Difluorobenzyl)-1,7-dimethyl-6H-pyrrolo[2,3-e][1,2,4]triazolo[4,3-a]pyridin-4-yl)urea]
13 | ≤ 100 | ≤ 100 | Cc1cc2c(cc(NC(N)=O)c3nnc(C)n32)n1Cc1ccccc1F [Example 238, 1-(6-(2-Fluorobenzyl)-1,7-dimethyl-6H-pyrrolo[2,3-e][1,2,4]triazolo[4,3-a]pyridin-4-yl)urea]
14 | ≤ 100 | ≤ 100 | Cc1cc2c(cc(NC(N)=O)c3nnc(C)n32)n1Cc1ccc(F)cc1 [Example 239, 1-(6-(4-Fluorobenzyl)-1,7-dimethyl-6H-pyrrolo[2,3-e][1,2,4]triazolo[4,3-a]pyridin-4-yl)urea]
